From ChEMBL document CHEMBL5226349, “Novel Antimicrobial 8-Hydroxyquinoline-Based Agents: Current Development, Structure-Activity Relationships, and Perspectives” (J Med Chem, 2021)
Values after ≈ are worked out from the molar mass of the structure shown.

Tests used:
[1] = test system: Mycobacterium tuberculosis; assay: Antibacterial activity against Mycobacterium tuberculosis; format: functional
[2] = test system: Candida albicans; assay: Antifungal activity against Candida albicans; format: functional
[3] = Inhibition of Mycobacterium tuberculosis Zmp1
[4] = Inhibition of Mycobacterium tuberculosis FBA
[5] = Inhibition of Mycobacterium tuberculosis MetAP1a
[6] = biological target: Methionine aminopeptidase 1 (Homo sapiens, UniProt P53582); assay: Inhibition of human MetAP1
[7] = Inhibition of Mycobacterium tuberculosis MetAP1c
[8] = biological target: Methionine aminopeptidase 2 (Homo sapiens, UniProt P50579); assay: Inhibition of human MetAP2
[9] = test system: Mycobacterium tuberculosis; assay: Antibacterial activity against aged non-growing Mycobacterium tuberculosis; format: functional
[10] = test system: Chlamydia; assay: Antibacterial activity against Chlamydia; format: functional
[11] = biological target: Botulinum neurotoxin type F (Clostridium botulinum, UniProt P30996); assay: Inhibition of Botulinum neurotoxins/F
[12] = test system: Nakaseomyces glabratus; assay: Antifungal activity against Candida glabrata; format: functional
[13] = Inhibition of bacterial New Delhi metallo-beta-lactamase 1; set-up: species or system Bacteria
[14] = Inhibition of bacterial VIM-2; set-up: species or system Bacteria
[15] = Cytotoxicity against human HeLa cells; format: toxicity, cell-based
[16] = test system: Enterococcus; assay: Antibiofilm activity against vancomycin-resistant Enterococcus; format: functional
[17] = test system: Staphylococcus aureus; assay: Antibiofilm activity against methicillin-resistant Staphylococcus aureus; format: functional
[18] = test system: Staphylococcus epidermidis; assay: Antibiofilm activity against methicillin-resistant Staphylococcus epidermidis; format: functional
[19] = Inhibition of Aeromonas proteolytica aminopeptidase; set-up: species or system Vibrio proteolyticus
[20] = Inhibition of human zinc metalloprotease
[21] = test system: Aspergillus; assay: Antifungal activity against Aspergillus; format: functional
[22] = test system: Trichophyton; assay: Antifungal activity against Trichophyton; format: functional
[23] = test system: Microsporum; assay: Antifungal activity against Microsporum; format: functional
[24] = biological target: Botulinum neurotoxin type A (Clostridium botulinum, UniProt P0DPI0); assay: Inhibition of Botulinum neurotoxins/A
Botulinum neurotoxin type A, sequence (P0DPI0 2-448 limits assumed): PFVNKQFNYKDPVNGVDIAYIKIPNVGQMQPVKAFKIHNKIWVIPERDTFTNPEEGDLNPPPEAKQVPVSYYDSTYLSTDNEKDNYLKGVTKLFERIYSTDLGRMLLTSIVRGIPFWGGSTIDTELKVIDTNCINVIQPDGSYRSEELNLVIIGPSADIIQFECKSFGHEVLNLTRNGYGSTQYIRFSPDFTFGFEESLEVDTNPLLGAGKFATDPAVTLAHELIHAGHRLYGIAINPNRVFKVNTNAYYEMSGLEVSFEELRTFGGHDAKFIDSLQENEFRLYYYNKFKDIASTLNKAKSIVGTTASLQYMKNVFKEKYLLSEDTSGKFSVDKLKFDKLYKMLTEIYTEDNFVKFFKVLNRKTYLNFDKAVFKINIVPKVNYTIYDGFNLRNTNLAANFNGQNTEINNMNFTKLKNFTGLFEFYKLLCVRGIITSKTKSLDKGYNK

Botulinum neurotoxin type F, sequence (P30996 1-436 limits assumed): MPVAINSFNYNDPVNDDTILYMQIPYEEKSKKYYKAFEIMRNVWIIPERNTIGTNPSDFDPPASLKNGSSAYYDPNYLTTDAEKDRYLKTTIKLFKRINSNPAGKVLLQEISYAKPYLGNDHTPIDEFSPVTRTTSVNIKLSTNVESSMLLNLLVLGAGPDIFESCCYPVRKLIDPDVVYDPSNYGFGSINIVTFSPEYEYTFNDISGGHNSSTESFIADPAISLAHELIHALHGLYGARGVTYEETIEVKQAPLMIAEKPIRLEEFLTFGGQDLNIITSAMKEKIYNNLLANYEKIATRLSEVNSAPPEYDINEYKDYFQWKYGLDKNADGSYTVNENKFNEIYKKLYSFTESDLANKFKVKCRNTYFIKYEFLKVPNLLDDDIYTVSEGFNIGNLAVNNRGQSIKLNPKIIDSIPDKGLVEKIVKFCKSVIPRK
Methionine aminopeptidase 2, sequence (P50579 whole entry): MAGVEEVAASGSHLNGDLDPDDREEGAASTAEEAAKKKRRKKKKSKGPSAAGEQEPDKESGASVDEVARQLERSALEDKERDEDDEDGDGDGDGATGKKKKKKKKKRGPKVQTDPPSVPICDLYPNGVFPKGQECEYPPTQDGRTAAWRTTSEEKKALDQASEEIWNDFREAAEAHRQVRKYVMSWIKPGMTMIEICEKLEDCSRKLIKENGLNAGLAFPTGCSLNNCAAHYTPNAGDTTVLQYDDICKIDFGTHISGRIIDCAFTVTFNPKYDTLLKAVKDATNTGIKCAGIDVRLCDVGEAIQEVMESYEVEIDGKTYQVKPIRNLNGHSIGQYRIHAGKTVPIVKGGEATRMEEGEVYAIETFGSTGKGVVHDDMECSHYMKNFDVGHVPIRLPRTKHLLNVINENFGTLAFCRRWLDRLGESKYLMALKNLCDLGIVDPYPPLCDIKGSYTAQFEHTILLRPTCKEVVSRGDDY

Work on `Nc1ccc2cccc(O)c2n1` yielded an MIC [1] of 4.6 µM (≈ 0.737 µg/mL).

Work on `O=C(O)c1ccc(O)c2ncccc12` yielded an MIC [2] of 1250 µM (≈ 236 µg/mL).

With `O=C(O)c1ccc2cccc(O)c2n1` the IC50 [3] was > 10 µM and the IC50 [4] was 10 µM.

Compound `Oc1c(Br)cc(Cl)c2cccnc12` has an IC50 [5] of 5.44 µM, an IC50 [6] of 105 µM and an IC50 [7] of 4.92 µM. For the same compound, the IC50 [8] was 112 µM, the MIC [9] was 2.51 µM (≈ 0.649 µg/mL) and the MIC [1] was 19.3 µM (≈ 5 µg/mL).

For `O=[N+]([O-])c1cc(CN2CCN(c3ccccc3)CC2)c(O)c2ncccc12`, the MBC [10] was 25 µM (≈ 9.11 µg/mL).

For `Oc1cccc2ccc(/C=C/c3ccccc3Cl)nc12`, the MIC [1] was 5.8 µM (≈ 1.63 µg/mL).

`Cc1ccnc(NC(c2ccccc2)c2ccc3cccnc3c2O)c1` (stereo not given) showed an IC50 [11] of 14.9 µM.

In the case of `O=C(O)c1ccc(NC(c2ccccc2)c2ccc3cccnc3c2O)cc1` (stereo not given), the IC50 [11] is reported as 30.5 µM.

Work on `O=[N+]([O-])c1cc(CN2CCN(c3ccc(F)cc3)CC2)c(O)c2ncccc12` yielded an MBC [10] of 3.13 µM (≈ 1.2 µg/mL).

For `O=[N+]([O-])c1cc(CN2CCC(c3ccccc3)C2)c(O)c2ncccc12` (stereo not given), the MBC [10] was 12.5 µM (≈ 4.37 µg/mL).

With `Oc1cccc2ccc(Nc3ccccc3)nc12` the MIC [1] was > 20 µM.

For `Oc1c(Cl)cc(Cl)c2ccc(/C=C/c3ccc(/C=C/c4ccc5c(Cl)cc(Cl)c(O)c5n4)cc3)nc12`, the MIC [1] was > 72.2 µM.

For `O=S(=O)(O)c1ccc(O)c2ncccc12`, the MIC [2] was 4.44 µM (≈ 1 µg/mL) and the MIC [12] was 4.44 µM (≈ 1 µg/mL).

`O=C(Nc1cccc(Cl)c1)c1ccc2cccc(O)c2n1` gave an MIC [1] of 50 µM (≈ 14.9 µg/mL).

Compound `O=C(Nc1ccccc1Br)c1ccc2cccc(O)c2n1` has an MIC [1] of 23 µM (≈ 7.89 µg/mL).

With `O=C(Nc1cccc(C(F)(F)F)c1)c1ccc2cccc(O)c2n1` the MIC [1] was 24 µM (≈ 7.97 µg/mL).

`O=C(Nc1ccc(C(F)(F)F)cc1)c1ccc2cccc(O)c2n1` gave an MIC [1] of 24 µM (≈ 7.97 µg/mL).

`O=C(Nc1ccccc1[N+](=O)[O-])c1ccc2cccc(O)c2n1` gave an MIC [1] of 97 µM (≈ 30 µg/mL).

`O=C(O)c1ccc2cccnc2c1O` showed an IC50 [13] of 0.76 µM and an IC50 [14] of 0.74 µM.

For `CCOC(=O)c1cc2c(Br)cc(Br)c(O)c2nc1C`, the IC50 [15] was > 100 µM.

For `Oc1cccc2ccc(N3CCCCC3)nc12`, the MIC [1] was > 20 µM.

In the case of `Oc1c(Br)cc(Br)c2ccc(CNc3ccc(F)cc3)nc12`, the MBEC [16] is reported as 1 µM, the MBEC [17] is reported as 93.8 µM and the MBEC [18] is reported as 5.9 µM.

For `Cc1ccc2ccc(C(=O)NCc3ccc(F)cc3)c(O)c2n1`, the MIC [1] was > 500 µM.

For `COc1ccc(CNC(=O)c2ccc3ccc(C)nc3c2O)cc1`, the MIC [1] was > 500 µM.

In the case of `Cc1ccc2ccc(C(=O)NCc3ccccc3)c(O)c2n1`, the MIC [1] is reported as > 500 µM.

With `Cc1ccc(CNC(=O)c2ccc3ccc(C)nc3c2O)cc1` the MIC [1] was > 500 µM.

In the case of `COc1cccc(/C=C/c2ccc3cccc(O)c3n2)c1`, the MIC [1] is reported as > 200 µM.

For `Oc1ccc(C(F)(F)F)c2cccnc12`, the Ki [19] was 0.37 µM.

With `O=C(NOCc1ccccc1)c1ccc2cccc(O)c2n1` the IC50 [20] was ≥ 1 µM and the IC50 [3] was 0.011 µM.

Work on `CC(=O)N1CCN(c2nc(Nc3ccc(C#N)c(C(F)(F)F)c3)nc(Oc3cccc4cccnc34)n2)CC1` yielded an MIC [21] of 9.8 µM (≈ 5.24 µg/mL) and an MIC [1] of 117 µM (≈ 62.5 µg/mL).

Compound `COc1cc(OC)nc(Nc2ccc3cccnc3c2O)n1` has an MIC [22] of 3.35 µM (≈ 0.999 µg/mL) and an MIC [23] of 3.35 µM (≈ 0.999 µg/mL).

Compound `O=S(=O)(NC(c1cccc(F)c1)c1cc(Cl)c2cccnc2c1O)c1ccccc1` (stereo not given) has an IC50 [24] of 5.8 µM.

For `O=C(NCCO[C@H]1O[C@H](CO)[C@@H](O)[C@H](O)[C@@H]1O)c1ccc2cccnc2c1O`, the MIC [2] was 10000 µM (≈ 3940 µg/mL).

With `NS(=O)(=O)c1cc(Cl)c2cccnc2c1O` the Ki [19] was > 100 µM.

`O=C(O)c1ccc2ccc(/C=C/c3ccccc3Cl)nc2c1O` showed an MIC [1] of 120 µM (≈ 39.1 µg/mL).

Compound `Clc1cc2c(c3ncccc13)OCN(C1CCCCC1)C2` has an IC50 [5] of 4.3 µM and an IC50 [7] of 3.76 µM.
